{"source": "patent US8361743B2", "about": "“Biological production of zeaxanthin and carotenoid biosynthesis control” (Aquapharm Bio-Discovery Ltd., priority 2005, dated 2013)", "test_system": "strain AQP096", "test": "Induction of the carotenoid biosynthetic pathway using menadione, HPLC carotenoid analysis", "assay_type": "cell-based, Algibacter sp. AQP096", "method": "On the HPLC using a reverse phase Gemini C-18 250×4.6 mm column, 10 μl of pigment sample was eluted with a linear gradient from 10% v/v Acetone in Water: 100% Acetone (30:70) to 10% v/v Acetone in Water:100% Acetone (5:95) for 10 min followed with a 6 minute run of 10% v/v Acetone in Water:100% Acetone (5:95) before returning to the start conditions of 10% v/v Acetone in Water: 100% Acetone (30:70) with a 1 min linear gradient and a two minute run of 10% v/v Acetone in Water:100% Acetone (30:70) at a flow rate of 1.3 ml/min. Detection was at 450 nm. Menadione at a concentration of 0.100 mg/ml was added to a 24 hr old culture of AQP096 cultured in marine broth. This culture was further incubated for 4 days on the orbital shaker at 220 rpm […]. After 5 days of incubation, cultures were centrifuged (4,500 rpm, 20 min) and the pigments analysed for carotenoid content by HPLC (See FIGS. 4a and 4b)."}
{"smiles": "CC1=CC(=O)c2ccccc2C1=O", "note": "[menadione]", "values": [{"measurement": "induced production of astaxanthin", "setting": "menadione 0.100 mg/ml", "value": "~12", "unit": "%"}, {"measurement": "induced production of beta carotene", "setting": "menadione 0.100 mg/ml", "value": "about 10%"}, {"measurement": "induced production of beta-cryptoxanthin", "setting": "menadione 0.100 mg/ml", "value": "~8", "unit": "%"}, {"measurement": "induced production of canthaxanthin", "setting": "menadione 0.100 mg/ml", "value": "~12", "unit": "%"}, {"measurement": "induced production of lycopene", "setting": "menadione 0.100 mg/ml", "value": "~6", "unit": "%"}, {"measurement": "induced production of other carotenoids such as adonirubin and 3-hydroxyechinenone", "setting": "menadione 0.100 mg/ml", "value": "~2", "unit": "%"}, {"measurement": "effect on carotenoid production", "setting": "menadione 0.100 mg/ml added to 24 hr old culture in marine broth, HPLC", "value": "induced the production of all carotenoids associated with the standard carotenoid biosynthetic pathway"}, {"measurement": "amount of zeaxanthin produced by AQP096", "setting": "menadione 0.100 mg/ml, 98% under standard growth conditions", "value": "around 60%"}]}
